Reference: patent US20250026777A1, “COCRYSTALS OF NICOTINAMIDE RIBOSIDE SALTS, CRYSTALLINE FORMS, METHODS OF PREPARATION, AND APPLICATIONS THEREOF” (Beiture LLP, priority 2023, published 2025)
“Also recorded” adds a separate entry of the source. Read-outs that look alike come from different tables or passages of the source.

What was measured:
[1] = Chemical decomposition in alcohol suspension; type: physicochemical
Description: Reaction crystallization temperatures and times depend upon targeted crystalline form of the cocrystal of a salt that is to be crystallized, the concentration of the salt and coformer in solution, and the solvent system. It should be noted that the elevated temperature or the long reaction time should be avoided to reduce the possibility of chemical decomposition for the […]. […] Even in room temperature, the nicotinamide riboside chloride starts to decompose after stirring in the alcohol suspension for more than 3 days. The preferred reaction time is less than 24 hours with reaction temperature at around room temperature.

[2] = type: physicochemical
Description: Various solvents are selected based on solubility of starting materials and crystallization methods disclosed herein. […] These differences in solubilities also impact the ratio of the two starting materials. In the disclosed methods to prepare […], a ratio between the nicotinamide riboside chloride salt and resveratrol cofomer from about 2:1 to about 2:2 to prepare [NR—Cl]2[RSV] with a NR—Cl/RSV molar ratio of 2:1.

[3] = Hygroscopicity evaluation at about 75% RH (NaCl saturated aqueous solution), visual powder property and polarized light microscopy; type: physicochemical; details: for hygroscopicity compared to NR—Cl crystalline forms: compared to NR—Cl-Form A and NR—Cl-Form B; for powder state for more than one month: environment of 75% RH; for powder property after 1 day / powder property after 7 days / powder property and crystallinity after 30 days: ~75% RH, room temperature (~22° C.)
Description: In addition to the thermal stability, the hygroscopicity, the tendency of a solid substance to absorb moisture from the surrounding atmosphere, is another important physicochemical property that needs to be considered during pharmaceutical development, because, like the heat, the moisture may also damage the drug product at a specific storage condition during the period of the drug shelf life. One of the key disadvantages of the nicotinamide riboside chloride products in the market is its poor hygroscopicity. As reported previously, all the three crystalline forms of the nicotinamide riboside chloride deliquesce at the relative humidity (RH) of 70%-80%. As a result, the nicotinamide riboside chloride requires to store in a dry place to avoid absorbing moisture from the air. […] The hygroscopicity assessment can be achieved by placing compounds in a specified relative humidity environment, e.g., ˜75% RH environment established with the sodium chloride saturated aqueous solution.
A Kerr SureTight™ container of 8 oz Clear Glass Wide Mouth Mason Jars with Silver Vacuum Seal Lid was used to secure the closure. An 8 ml opened vial containing sodium chloride (NaCl) saturated aqueous solution (about 75.5% RH at 20° C. and about 75.3% at 25° C. from www.engineeringtoolbox.com/salt-humidity-d_1887.html) was placed in the SureTight container. The 4 ml of opened vials containing about 5 mg of [NR—Cl]2[RSV] cocrystals or NR—Cl crystalline forms were also placed in the same container with the vial of the NaCl saturated aqueous solution. The container was sealed with the seal lid and placed in a room temperature condition (˜22° C.). The powder property was visually observed directly or during shaking the vial. Crystallinity was assessed under a polarized light microscope.

[4] = Thermal stability by differential scanning calorimetry (DSC); type: physicochemical; details: for heat of fusion: DSC; for melting/decomposition endotherm peak: heating rate 10° C./minute
Description: Thermal stability is the stability of a molecule at elevated temperatures, and a molecule with more thermal stability has more resistance to decomposition at elevated temperatures. Thermal stability of a compound is one of the most important pharmaceutical properties that requires to be considered during developing a pharmaceutical or nutraceutical product. […] Differential Scanning calorimetry (DSC) is an analysis technique by measuring the heat change associated with the molecule's thermal events when heated at a constant rate. The temperature and its enthalpy change (usually the heat of fusion) at a specific thermal event recorded from DSC technique could be used to evaluate the thermal stability of an organic molecule directly. […] It is desirable to identify a new crystalline form with a higher melting/decomposition temperature and/or a larger heat of fusion to improve the thermal stability of the nicotinamide riboside drug substance.
DSC analysis was performed on samples prepared according to standard methods using a Q SERIES™ Q2500 DSC calorimeter available from TA INSTRUMENTS® (New Castle, Delaware). A sample (approximately 2 mg) was weighed into an aluminum sample pan and transferred to the DSC. The instrument was purged with nitrogen at 50 mL/min and data collected between 22° C. and 300° C., using a dynamic heating rate of 10° C./minute. Thermal data was analyzed using standard software, e.g., TRIOS from TA INSTRUMENTS®.

[5] = NR—Cl crystalline forms, previously identified; cited from earlier work

Row | solubility in EtOH [2] | solubility in IPA [2] | solubility in MeOH [2] | solubility in water [2] | Molecule | hygroscopicity compared to NR—Cl crystalline forms [3] | powder state for more than one month [3] | powder property after 1 day [3] | powder property after 7 days [3] | powder property and crystallinity after 30 days [3] | heat of fusion [4] | melting/decomposition endotherm peak [4] | heat of fusion [5] | melting/decomposing temperature [5] | also measured
1 | poorly soluble | poorly soluble | soluble | soluble | NC(=O)c1ccc[n+]([C@@H]2O[C@H](CO)[C@@H](O)[C@H]2O)c1.[Cl-] [nicotinamide riboside chloride] | – | – | – | – | – | – | – | – | – | time within which decomposition occurs in alcohol suspension ([1]; elevated temperature above 50° C.): ≤ 1 h; stirring time after which decomposition starts in alcohol suspension ([1]; room temperature): more than 3 days
2 | – | – | – | – | resveratrol cocrystal of nicotinamide riboside chloride [[NR—Cl]2[RSV]-Form A] | better hygroscopicity | retain as flowable crystalline powders | flowable powders | flowable powders | flowable crystalline powders | 100 J/g | about 128 °C | – | – | thermal stability compared to NR—Cl crystalline forms ([4]; from melting/decomposition temperature and heat of fusion): better thermal stability
3 | – | – | – | – | resveratrol cocrystal of nicotinamide riboside chloride [[NR—Cl]2[RSV]-Form B] | better hygroscopicity | retain as flowable crystalline powders | flowable powders | flowable powders | flowable crystalline powders | 97 J/g | about 127 °C | – | – | –
4 | – | – | – | – | NC(=O)c1ccc[n+]([C@@H]2O[C@H](CO)[C@@H](O)[C@H]2O)c1.[Cl-] [NR—Cl-Form B, nicotinamide riboside chloride] | – | – | – | – | glass-like liquids (amorphous materials) | – | – | 69 J/g | 123 °C | –
5 | – | – | – | – | NC(=O)c1ccc[n+]([C@@H]2O[C@H](CO)[C@@H](O)[C@H]2O)c1.[Cl-] [NR—Cl-Form A, nicotinamide riboside chloride] | – | – | deliquesced; also recorded: became sticky and could not flow freely | deliquesced | glass-like liquids (amorphous materials) | – | – | 58 J/g | 119 °C | –
6 | soluble | soluble | soluble | poorly soluble | Oc1ccc(/C=C/c2cc(O)cc(O)c2)cc1 [resveratrol, 3,5,4′-trihydroxy-trans-stilbene] | – | – | – | – | – | – | – | – | – | –
